How the values were obtained:
[1] = British Pat. No. 1,390,091; cited from earlier work
[2] = test system: aggregation of thromocytes; settings: British Pat. No. 1,390,091; cited from earlier work
[3] = test system: respiratory depression associated with platelet aggregation and thrombosis induced by arachidonic acid; assay: Inhibition of arachidonic acid-induced respiratory depression in mice; format: in vivo; settings: arachidonic acid 50 mg./kg. i.v. two hours later
Description: In a second test the in vivo activity is determined in mice. […] Mice were treated orally by gastric lavage with the test compounds in a starch suspension at various dosage levels. Two hours later a challenge dose of arachidonic acid was given to the mice intravenously at a concentration of 50 mg./kg. The period of respiratory distress for each animal was recorded in seconds by observation. The results of a typical compound of this invention appear in Table II in terms of percent inhibition in comparison with controls.

[4] = test system: ultraviolet induced erythema; assay: Ultraviolet induced erythema in guinea pigs; format: in vivo, Albino guinea pigs; settings: maximum score 3.0
Description: Another method of determining a drug effect on conditions which result in inflammation is by measuring the effect on ultraviolet induced erythema in guinea pigs. Albino guinea pigs were depilitated on their flanks, the evening before testing, with a standard mixture of barium sulfide and gum acacia. On the morning of the test, groups of 4 guinea pigs were dosed by gavage one hour prior (-1 hour) to ultraviolet exposure. At 0 hour they were restrained in a plastic container which allows exposure of 3 circular spots. They were then exposed to ultraviolet irradiation from a "Hanovia" Kromayer lamp, model 10, for 60 seconds. At one and four hours, the degree of erythema for each of the three sites was assessed according to the following scoring system: 0=no erythema, 0.5=incomplete circle or faint erythema and 1.0=[…] circle of distinct erythema. Thus, the maximum score for each animal was 3.0.

[5] = test system: platelet aggregation (collagen-induced, platelet rich plasma); assay: Inhibition of collagen-induced platelet aggregation ex vivo after oral administration to male rats; format: in vivo; settings: rats bled after one to 2 hours, collagen 500 mcg./ml.
Description: The compounds were administered orally to male rats in various concentrations. After one to 2 hours the rats were bled and platelet rich plasma obtained. Collagen was added at a concentration of 500 mcg./ml. to induce platelet aggregation and comparisons were made between control and treated samples. The percent inhibition of aggregation produced by the test compound was recorded.

[6] = test system: adjuvant induced arthritis (Freund's adjuvant); assay: Chronic inflammation, adjuvant induced arthritis; format: in vivo, Royal Hart, Wistar strain rats; settings: 50 mg./kg. oral once daily, days 0 through 13
Description: In a second test the activity against chronic inflammation in adjuvant induced arthritis was determined. Groups of 3 Royal Hart, Wistar strain rats, weighing 200±10 g. each were injected intradermally in the right hind paw with Freund's adjuvant (dried human tubercle bacilli in a mineral oil vehicle) at a dose of 2 mg./kg. of body weight. Test compounds were administered orally in a 1.5% starch vehicle at 50 mg./kg. of body weight once daily on days 0 through 13 post challenge. Control rats were treated in a similar manner, but given only starch vehicle. On the 14th day post challenge the diameter of the injected paw (primary lesion) was measured by micrometer caliper. The volume of inflamed paws was estimated from these measurements and the results are expressed as percent inhibition of swelling as compared to controls. At the same time, the other inflamed sites, such as ears, paws and tail (secondary lesions) were observed and each rat was graded as to the degree of inflammation and swelling present. The grading is based on a scale of 0 to 24, where 0 represents a complete absence of induced arthritic nodules and 24 represents the maximum degree of inflammation. The mean grade for each treated group is calculated and the effects of each compound are expressed as percent inhibition of the control grade. Table IV records the results of this test on a typical compound of this invention.

[7] = test system: carrageenin-induced edema; assay: Acute anti-inflammatory activity, carrageenin-induced paw edema; format: in vivo, Royal Hart, Wistar strain rats; settings: 250 mg./kg. by gavage; 5 hours after drug, 4 hours after carrageenin; edema of control animals/edema of treated animals; >1.41 considered active
Description: In determining the acute anti-inflammatory activity, Royal Hart, Wistar strain rats ranging in weight from 80 to 90 grams were used. The rats were fasted overnight prior to dosing but had free access to water. The compounds were administered in aqueous suspension, by gavage, in a column of 1.7 ml. per 50 g. of rat [corresponds to the hydration volume used by Winter, et al., Proc. Soc. Exp. Biol. and Med. 111, 544-547 (1962)].
The phlogistic agent used was carrageenin prepared as a sterile 1% suspension in 0.9% aqueous sodium chloride for routine testing. A volume of 0.05 ml. was injected through a 26 gauge needle into the plantar tissue of the right hind paw. Measurements were made 5 hours after drug administration (4 hours after carrageenin challenge).
Volumes of both the normal and carrageenin inflamed feet were determined. The difference between the two measurements is considered to be the increased edema due to the carrageenin administration. Results are expressed as a C/T efficacy ratio (edema of control animals/edema of treated animals) and a C/T ratio of greater than 1.41 is considered active.

[8] = 62.5 mg./kg. by gavage 1 hour prior to UV, 4 animals
[9] = 125 mg./kg. by gavage 1 hour prior to UV, 4 animals
[10] = 250 mg./kg. by gavage 1 hour prior to UV, 8 animals

Row | Structure (SMILES) | activity as indicated (antiphlogistic) [1] | activity as indicated (aggregation of thromocytes) [2] | % Inhibition (period of respiratory distress) ([3]; 1 mg./kg. oral) [%] | % Inhibition (period of respiratory distress) ([3]; 10 mg./kg. oral) [%] | % Inhibition (period of respiratory distress) ([3]; 25 mg./kg. oral) [%] | % Inhibition (period of respiratory distress) ([3]; 50 mg./kg. oral) [%] | Score (avg.) 1 hour [4, 8] | Score (avg.) 4 hour [4, 8] | Score (avg.) 1 hour [4, 9] | Score (avg.) 4 hour [4, 9] | Score (avg.) 1 hour [4, 10] | Score (avg.) 4 hour [4, 10] | % Inhibition (platelet aggregation) ([5]; 10 mg./kg. oral) [%] | % Inhibition (platelet aggregation) ([5]; 25 mg./kg. oral) [%] | % Inhibition (platelet aggregation) ([5]; 50 mg./kg. oral) [%] | % Inhibition of Swelling (primary lesion) ([6]; 14th day post challenge, injected paw) [%] | % Inhibition of Control grade (secondary lesion) ([6]; 14th day, grade scale 0 to 24) [%] | C/T Edema Ratio [7]
1 | O=C1CCC(c2ccc(-c3ccccc3)cc2)O1 (stereo not drawn) [5-(4-biphenylyl)-2-hydro-2-(3H)-furanone] | antiphlogistic | inhibitory |  |  |  |  |  |  |  |  |  |  |  |  |  |  |  | 
2 | O=C(O)CCC(O)c1ccc(-c2ccccc2)cc1 (stereo not drawn) [γ-Hydroxy-4-biphenylbutyric acid] |  |  | 46 | 51 | 66 | 63 | 0 | 2.1 | 0.4 | 2.9 | 0 | 2.0 | 25 | 25 | 19 | 51 | 30 | 2.0

Source: US4219668A, “4-Hydroxy,4-biphenylbutyric acid” (American Cyanamid Company, priority 1979, dated 1980)
